Values quoted from earlier work, collected in US6562363B1, “Bioadhesive compositions and methods for topical administration of active agents” (Noven Pharmaceuticals, Inc., priority 1997, dated 2003).

What was measured:
[1] = application to skin or mucous membranes
[2] = application to skin or mucous membranes; for Duration of Effect: duration of anesthetic effect; for Peak Effect: time to peak anesthetic effect

Structure (SMILES) | Maximum Adult Dose [1] | Duration of Effect [2] | Peak Effect [2]
CCOC(=O)c1ccc(N)cc1 [Benzocaine] | 5000 mg | 30 to 60 min | 1 min
COC(=O)[C@H]1[C@@H](OC(=O)c2ccccc2)C[C@@H]2CC[C@H]1N2C [Cocaine] | 50 mg | – | –
CCN(CC)CC(=O)Nc1c(C)cccc1C [Lidocaine] | 750 mg | – | –
CCCCOc1cc(C(=O)NCCN(CC)CC)c2ccccc2n1 [Dibucaine] | 25 mg | 120 to 240 min | <15 min
CCCCOc1ccc(C(=O)CCN2CCCCC2)cc1 [Dyclonine] | 100 mg | <60 min | <10 min
CCCCNc1ccc(C(=O)OCCN(C)C)cc1 [Tetracaine] | 50 mg | 30 to 60 min | 3 to 8 min
